Structures can show the parent of a compound that is named as a salt.
Key:
[1] = system: Acanthamoeba polyphaga strain Ros cysts; assay: Acanthamoeba contact lens disinfectant challenge test assay; assay type: cell-based; conditions: 25 ppm
Protocol: Acanthamoeba polyphaga strain Ros were used in this study. Trophozoites were maintained at 30° C. in an axenic broth medium composed of 20.0 g Biosate™ (Becton Dickinson, United Kingdom), 5.0 g glucose, 0.3 g KH2PO4, 10 μg vitamin B12 and 15.0 mg L-methionine per litre of deionized water. The pH was adjusted to 6.5-6.6 with 1 M NaOH before autoclaving at 121° C. for 12 minutes. Penicillin and streptomycin were added to a final concentration of 150 μ/ml before use.
Cysts were prepared from trophozoite cultures using the axenic medium supplemented with 50 mM MgCl2. The encystment medium was inoculated with approximately 2×10^5 /ml trophoxoites for culture at 30° C. in a shaking incubator (100 rpm) for 7 days. Cells were enumerated using haemocytometer counting.
The challenge test assay protocol, as described by R. Hughes and S. Kilvington, Comparison of Hydrogen Peroxide Contact Lens Disinfection Systems and Solutions Against Acanthamoeba Polyphaga, Antimicrob. Agents Chemother. 45: 2038-2043, (2001), is set forth in detail below. The number of surviving organisms was calculated as described by L. J. Reed and H. Muench, A Simple Method for Estimating Fifty Percent Endpoints, Am. J. Hyg., 27: 493-497, (1938). Statistical analysis of the data was by One Way Analysis Of Variance (ANOVA).
1. Fifty ml polypropylene centrifuge tubes were aged overnight with 15 ml of disinfectant solution, i.e., ReNue™ 02 (Bausch & Lomb, Rochester, N.Y.). The tubes were then drained, the disinfectant solution discarded, and refilled with 10 ml of fresh disinfectant solution for testing.
2. To a flat-bottomed, 96 well microtitre plate having 8 columns labelled “A” through “H”, 180 μl of neutralizer, i.e., 0.1 percent Tween™ 80 (Baker, Inc., Phillipsburg, N.J.) in one-quarter strength Ringer's solution for biguanide based disinfectants, was added to the outer wells of columns A and H. 180 μl of one-quarter strength Ringer's solution was then added to the remaining inner wells of columns B through G.
3. Amoebae were adjusted to 5×10^6 /ml in one-quarter strength Ringer's solution and 100 μl (5×10^5) was added to 10 ml of disinfectant (5×10^4 /ml) or saline control.
4. At time intervals of 0, 1, 2, 3, 4, 6 and 24 hours:
i. vortexed tubes 5 seconds;
ii. in quadruplet, removed 20 μl (1000 cells) and added to neutralizer wells for the given time-point (i.e., column A, rows 9-12) and made serial 10-fold dilutions across the microtitre plate (i.e., to column D, rows 9-12); and
iii. repeated for each time point.
5. One drop of live E. coli from 3 ml pastette (25 μl of approximately 5×10^7 bacteria/ml) was then added to each well.
6. The plate was then incubated at 32° C. for up to 7 days.
7. The plate was inspected daily for 7 days for the presence of amoebal growth, either trophozoite replication or excystment and trophozoite replication, in the wells.
8. The number of surviving organisms was then estimated at each time interval by Reed and Muench computation and set forth below in Table 3.

| melting point | Compound | Amoebae Log Kill, Cysts ([1]; 1 Hr.) | Amoebae Log Kill, Cysts ([1]; 4 Hr.) |
| --- | --- | --- | --- |
| – | CCCCCCCCCCCCCC(=O)OCCC[N+](C)(C)CCC [Compound 9, N-myristoyloxypropyl-N,N-dimethyl-N-propylammonium iodide] | 3.69 Log | 4 Log |
| – | CCCCCCCCCCCCCCCC(=O)OCCC[N+](C)(C)C [Compound 6, N-palmitoyloxypropyl-N,N,N-trimethylammonium iodide] | 0.46 Log | 3.54 Log |
| 116 to 118 °C | CCCCCCCCCCCCCCCC(=O)OCCC[N+](C)(C)C (as salt: iodide) [Compound 6, N-palmitoyloxypropyl-N,N,N-trimethylammonium iodide] | – | – |
| 116 to 118 °C | CCCCCCCCCCCCCCCCCC(=O)OCCC[N+](C)(C)C (as salt: iodide) [Compound 7, N-stearoyloxypropyl-N,N,N-trimethylammonium iodide] | – | – |
| 92 to 94 °C | CCCCCCCCCCCCCC(=O)OCCOCC[N+](C)(C)C (as salt: iodide) [Compound 15, N-myristoyloxyethoxyethyl-N,N,N-trimethylammonium iodide] | – | – |
| – | CCCCCCCCCCCCCC(=O)OCCC[N+](C)(C)CCCCCC [Compound 12, N-myristoyloxypropyl-N,N-dimethyl-N-hexylammonium iodide] | 3.54 Log | 3.54 Log |
| – | CCCCCCCCCCCCCC(=O)OCCC[N+](C)(C)CCCCC [Compound 11, N-myristoyloxypropyl-N,N-dimethyl-N-pentylammonium iodide] | 3.69 Log | 3.69 Log |
| 118 to 120 °C | CCCCCCCCCCCCCC(=O)OCCC[N+](C)(C)C (as salt: iodide) [Compound 5, N-myristoyloxypropyl-N,N,N-trimethylammonium iodide] | – | – |
| 78 to 79 °C | CCCCCCCCCCCCCC(=O)OCCC[N+](C)(C)CCCCCC (as salt: iodide) [Compound 12, N-myristoyloxypropyl-N,N-dimethyl-N-hexylammonium iodide] | – | – |
| – | CCCCCCCCCCCCCC(=O)OCCC[N+](C)(C)CC [Compound 8, N-myristoyloxypropyl-N,N-dimethyl-N-ethylammonium iodide] | 1 Log | 4 Log |

| Compound | melting point | Amoebae Log Kill, Cysts ([1]; 1 Hr.) | Amoebae Log Kill, Cysts ([1]; 4 Hr.) |
| --- | --- | --- | --- |
| CCCCCCCCCCCCCC(=O)OCCC[N+](C)(C)Cc1ccccc1 (as salt: chloride) [Compound 1, N-myristoyloxypropyl-N-benzyl-N,N-dimethylammonium chloride] | 93 to 95 °C | – | – |

Reference: patent US20040115160A1, “Quaternary ammonium esters for disinfection and preservation” (priority 2002, published 2004)
